Laboratory results taken from publication PMC7433010, “Exploration of multi‐target effects of 3‐benzoyl‐5‐hydroxychromen‐2‐one in Alzheimer’s disease cell and mouse models” (Aging Cell, 2020).

Molecular target: T1, ΔK280 TauRD‐DsRed (Homo sapiens, UniProt P10636, DEL597-597)
T1 construct: containing residues 244–372 of the full‐length 4R2N Tau441; expressed in transfected cells; host or cells: Tet-On 293 cells, doxycycline-induced (pcDNA5/FRT/TO/TauRD-DsRed)
Test: ∆K280 TauRD‐DsRed fluorescence assay (Tau misfolding) in 293 cells
Type: cell-based
Settings: 3 days
Excerpt: In ∆K280 TauRD‐DsRed 293 cells, a proaggregant (ΔK280) Tau repeat domain (TauRD) containing residues 244–372 of the full‐length 4R2N Tau441 was fused in‐frame with DsRed fluorophore. Compared to the wild‐type TauRD, the poorly folded ΔK280 TauRD formed aggregates, which adversely affected the folding of fused DsRed and thus decreased DsRed fluorescence, as also evidenced by increase in thioflavin S fluorescence emission (Chang et al., 2017). Thioflavin S is a reporter dye for studies of Tau toxicity and pharmacologic prevention in cell model of tauopathy (Pickhardt et al., 2017). It binds to amyloid fibrils but not monomers and gives a distinct increase in fluorescence emission. Inhibition of Tau aggregation may improve DsRed misfolding, leading to increased fluorescence in ΔK280 TauRD‐DsRed‐expressing cells. […] In the following experiments, DsRed fluorescence was measured in wells containing at least 80% viable cells. […]
DsRed fluorescence of proaggregant ∆K280 TauRD-DsRed 293 cells was evaluated to reflect Tau aggregation. […] Thioflavin S images (FITC 543 nm excitation and 593 nm emission) were captured and analyzed as described. In general, 2 × 10^4 cells in each biological replicate were analyzed.
Figure S2. ΔK280 TauRD-DsRed 293 cells. […] DsRed/thioﬂavin S fluorescence, ROS, and caspase 3 activity were assessed on day 5. […] (c) Dose response curves of LM-031 based on DsRed fluorescence measurement. […]

T1 sequence (P10636 with tags, fused parts or gaps isoform P10636-8 DEL280-280): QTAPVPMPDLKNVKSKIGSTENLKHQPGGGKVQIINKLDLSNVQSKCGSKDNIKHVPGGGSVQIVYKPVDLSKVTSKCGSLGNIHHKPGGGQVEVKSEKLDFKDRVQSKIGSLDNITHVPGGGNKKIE

| ∆K280 TauRD‐DsRed fluorescence (1 µM, untreated cells = 100%) [%] | ∆K280 TauRD‐DsRed fluorescence (10 µM, no treatment = 100%) [%] | SMILES |
| --- | --- | --- |
| 105 |  | C=CC(C)(C)c1cc(/C=C/C(=O)c2ccc(O)cc2)c(OC)cc1O [licochalcone A, reference compound] |
|  | 108 | Nc1c(/N=N/c2ccc(-c3ccc(/N=N/c4cc(S(=O)(=O)O)c5ccccc5c4N)cc3)cc2)cc(S(=O)(=O)O)c2ccccc12 [congo red, reference compound] |
